# Measurements as given in patent US20220064105A1, “CRYSTALLINE EDG-2 RECEPTOR ANTAGONIST AND METHODS OF MAKING” (Sanofi, priority 2020, published 2022).
# Assays:
# [1] = Solubility of Compound I in solvents at room temperature (about 25° C.); type: physicochemical; settings: thermodynamic from solid
# Procedure: Compound I was dissolved in a variety of solvents at room temperature (about 25° C.) to provide solutions of Compound I with a maximum concentration of 10 mg/mL. The input material in these experiments was a mixture of polymorphic forms 1, 2, and 3.
# The maximum concentration used in this set of experiments was 10 mg/mL. Solubility was highest in THF at >10 mg/mL. […] The solubility was estimated at less than 2 mg/mL for: 1-butanol, butyl acetate, hexane, ethanol, ethyl acetate, isobutyl alcohol, 1-pentanol, isopropanol, acetonitrile, dichloromethane, chloroform, and water.
# [2] = Estimated hot solubility in solvents at elevated temperature (approximately solvent boiling point); type: physicochemical; settings: thermodynamic from solid, read-out: Hot Solubility (est)
# Procedure: Compound I was dissolved in a variety of solvents at elevated temperature (approximately at solvent boiling point) to provide solutions of Compound I with a maximum concentration of 15 mg/mL. The input material in these experiments was a mixture of polymorphic forms 1, 2, and 3.
# When concentrations of Compound I was greater than 2 mg/mL, the solutions were filtered and evaporated at 25° C. to isolate the solid.
# [3] = tested on: mouse model of skin fibrosis; settings: cited from earlier work
# [4] = tested on: patients with diffuse cutaneous systemic sclerosis SSc (dcSSc); settings: cited from earlier work
structure (smiles),measurement,setting,value
"COc1ccc(C(=O)NC2(C(=O)O)Cc3ccccc3C2)cc1OCCc1cccc(C)c1 [Compound I, 2-(4-methoxy-3-(3-methylphenethoxy)benzamido)-2,3-dihydro-1H-indene-2-carboxylic acid]",solubility,"[1]; organic solvent or mixture, 1-butanol, read-out: Solubility (estimated)",< 2000 µg/mL
same,solubility,"[1]; organic solvent or mixture, 1-pentanol, read-out: Solubility (estimated)",< 2000 µg/mL
same,solubility,"[1]; organic solvent or mixture, MEK, read-out: Solubility",4000 to 6000 µg/mL
same,solubility,"[1]; organic solvent or mixture, THF, read-out: Solubility",> 10000 µg/mL
same,solubility,"[1]; organic solvent or mixture, acetone, read-out: Solubility",4000 to 6000 µg/mL
same,solubility,"[1]; organic solvent or mixture, acetonitrile, read-out: Solubility (estimated)",< 2000 µg/mL
same,solubility,"[1]; organic solvent or mixture, butyl acetate, read-out: Solubility (estimated)",< 2000 µg/mL
same,solubility,"[1]; organic solvent or mixture, chloroform, read-out: Solubility (estimated)",< 2000 µg/mL
same,solubility,"[1]; organic solvent or mixture, dichloromethane, read-out: Solubility (estimated)",< 2000 µg/mL
same,solubility,"[1]; organic solvent or mixture, ethanol, read-out: Solubility (estimated)",< 2000 µg/mL
same,solubility,"[1]; organic solvent or mixture, ethyl acetate, read-out: Solubility (estimated)",< 2000 µg/mL
same,solubility,"[1]; organic solvent or mixture, hexane, read-out: Solubility (estimated)",< 2000 µg/mL
same,solubility,"[1]; organic solvent or mixture, isobutyl alcohol, read-out: Solubility (estimated)",< 2000 µg/mL
same,solubility,"[1]; organic solvent or mixture, isopropanol, read-out: Solubility (estimated)",< 2000 µg/mL
same,solubility,"[1]; organic solvent or mixture, methanol, read-out: Solubility",2000 to 3000 µg/mL
same,solubility,"[1]; water, read-out: Solubility (estimated)",< 2000 µg/mL
same,solubility,"[2]; 40 °C, organic solvent or mixture, Dichloromethane (DCM)",< 4000 µg/mL
same,solubility,"[2]; 56 °C, organic solvent or mixture, Acetone",> 10000 µg/mL
same,solubility,"[2]; 61 °C, organic solvent or mixture, Chloroform",4000 to 5000 µg/mL
same,solubility,"[2]; 65 °C, organic solvent or mixture, Methanol",> 10000 µg/mL
same,solubility,"[2]; 69 °C, organic solvent or mixture, Hexane",< 2000 µg/mL
same,solubility,"[2]; 77 °C, organic solvent or mixture, Ethyl Acetate",5000 to 10000 µg/mL
same,solubility,"[2]; 78 °C, organic solvent or mixture, Ethanol",> 10000 µg/mL
same,solubility,"[2]; 80 °C, organic solvent or mixture, Methyl Ethyl Ketone (MEK)",> 15000 µg/mL
same,solubility,"[2]; 82 °C, organic solvent or mixture, 2-Propanol",7000 to 10000 µg/mL
same,solubility,"[2]; 82 °C, organic solvent or mixture, Acetonitrile",7000 to 10000 µg/mL
same,solubility,"[2]; 100 °C, Water",< 2000 µg/mL
same,solubility,"[2]; 108 °C, organic solvent or mixture, Isobutyl Alcohol",> 10000 µg/mL
same,solubility,"[2]; 118 °C, organic solvent or mixture, 1-Butanol",> 10000 µg/mL
same,solubility,"[2]; 126 °C, organic solvent or mixture, Butyl Acetate",~10000 µg/mL
same,solubility,"[2]; 138 °C, organic solvent or mixture, 1-Pentanol",> 10000 µg/mL
same,Collagen content,[3],reduced collagen content
same,Dermal thickening,[3],reversed dermal thickening
same,Myofibroblast differentiation,[3],significantly inhibited myofibroblast differentiation
same,Outcome measures,[4],improved outcome measures
same,Target engagement,[4],demonstrated target engagement
same,Tolerability,[4],well tolerated
